Data published in patent US20130172324A1, “METHOD FOR TREATING CARDIOVASCULAR DISEASES USING RHO KINASE INHIBITOR COMPOUNDS” (priority 2008, published 2013).
Like-named read-outs stand apart in the source and are kept apart here.

Tested on: rat trachea rings
Experiment: Tracheal relaxation assay (carbachol precontracted rings);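 note: isometric tension of rat tracheal rings in Krebs buffer with 1 µM indomethacin, compounds added cumulatively at 30 min intervals, basal tension subtracted, fit to Hill equation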
Conditions: for Percentage of carbachol-induced contraction at 1 μM compound, Avg % / Percentage of carbachol-induced contraction at 10 μM compound, Avg %: 1 μM carbachol; for IC50: read-out: IC50 Avg; for Trachael Ring Contraction, %: average percentage of carbachol-induced rat tracheal ring contraction at 1 μM of test compound
[1] = relaxation of 1 μM carbachol precontracted rat tracheal rings

Method: The effects of compounds to induce relaxation of pre-contracted rat trachealis were determined. […] Trachea were excised, cleaned of connective tissue and cut into cylindrical segments of 2-3 mm length. Two stainless steel wires were guided through the lumen of the tracheal ring. One wire was fixed in the tissue bath and the other was connected to a force transducer via surgical silk. […] Indomethacin (1 μM), a cyclooxygenase inhibitor, was added to the Krebs buffer and was present throughout the experiments. Contractile tensions were measured using an isometric force transducer (Grass Instruments) and signals were analyzed using specialized software (Chart v5.5, ADInstruments). The preparations were allowed to equilibrate at a resting tension of 0.3 to 0.5 gm prior to two challenges with 60 mM KCl to assess tissue viability. After washing, tissues were treated with 1 μM carbachol for 10 to 15 minutes to induce a contractile response. Test Compounds were added cumulatively to the bath every 30 minutes and reductions in tension were recorded. Basal tension was subtracted from all values and data were reported as a percentage of the maximal carbachol-induced contraction. Data were fit to the Hill equation using GraphPad Prism v5 software.

Structure (SMILES)	Percentage of carbachol-induced contraction at 1 μM compound, Avg %	Percentage of carbachol-induced contraction at 10 μM compound, Avg %	Trachael Ring Contraction, %	further results
Fc1ccc(CN2CCC[C@H](Nc3ccc4[nH]ncc4c3)C2)cc1F [Compound 1.072, (S)-N-(1-(3,4-difluorobenzyl)piperidin-3-yl)-1H-indazol-5-amine]	33.1%	–	–	–
CSc1ccc(CN2CCC[C@@H](Nc3ccc4[nH]ncc4c3)C2)cc1 [Compound 1.074, (R)-N-(1-(4-(methylthio)benzyl)piperidin-3-yl)-1H-indazol-5-amine]	39.6%	−15.1%	40%	IC50 (Rattus norvegicus): 0.729 µM
CSc1ccc(CN2CCC[C@H](Nc3ccc4[nH]ncc4c3)C2)cc1 [Compound 1.075, (S)-N-(1-(4-(methylthio)benzyl)piperidin-3-yl)-1H-indazol-5-amine]	39.1%	–	39%	–
Cc1ccc(CN2CCC[C@H](Nc3ccc4[nH]ncc4c3)C2)cc1 [Compound 1.078, (S)-N-(1-(4-methylbenzyl)piperidin-3-yl)-1H-indazol-5-amine]	39.6%	–	–	–
NC(=O)Cn1ccc2ccc(CN3CCC[C@H](Nc4ccc5[nH]ncc5c4)C3)cc21 [Compound 1.107, (S)-2-(6-((3-(1H-indazol-5-ylamino)piperidin-1-yl)methyl)-1H-indol-1-yl)acetamide]	–	9.9%	–	IC50 (Rattus norvegicus): 1.24 µM
CCS(=O)(=O)Nc1cccc(CN2CCC[C@@H](Nc3ccc4[nH]ncc4c3)C2)c1 [Compound 1.123, (R)-N-(3-((3-(1H-indazol-5-ylamino)piperidin-1-yl)methyl)phenyl)ethanesulfonamide]	46.7%	4.6%	47%	IC50 (Rattus norvegicus): 0.045 µM
CCS(=O)(=O)Nc1cccc(CN2CCC[C@H](Nc3ccc4[nH]ncc4c3)C2)c1 [Compound 1.124, (S)-N-(3-((3-(1H-indazol-5-ylamino)piperidin-1-yl)methyl)phenyl)ethanesulfonamide]	37.8%	19.7%	38%	IC50 (Rattus norvegicus): 0.021 µM
Clc1ccc(CN2CCC[C@@H](Nc3ccc4[nH]ncc4c3)C2)cc1 [Compound 1.132, (R)-N-(1-(4-chlorobenzyl)piperidin-3-yl)-1H-indazol-5-amine]	42.4%	–	42%	–
Clc1ccc(CN2CCC[C@H](Nc3ccc4[nH]ncc4c3)C2)cc1 [Compound 1.141, (S)-N-(1-(4-chlorobenzyl)piperidin-3-yl)-1H-indazol-5-amine]	35.3%	–	35%	–
c1cc2ccc(CN3CCC[C@H](Nc4ccc5[nH]ncc5c4)C3)cc2[nH]1 [Compound 1.148, (S)-N-(1-((1H-indol-6-yl)methyl)piperidin-3-yl)-1H-indazol-5-amine]	51.2%	–	51%	–
c1cc2cc(CN3CCC[C@H](Nc4ccc5[nH]ncc5c4)C3)ccc2[nH]1 [Compound 1.149, (S)-N-(1-((1H-indol-5-yl)methyl)piperidin-3-yl)-1H-indazol-5-amine]	34.4%	–	34%	–
c1cc2cc(CN3CCC[C@H](Nc4ccc5[nH]ncc5c4)C3)ccc2o1 [Compound 1.150, (S)-N-(1-(benzofuran-5-ylmethyl)piperidin-3-yl)-1H-indazol-5-amine]	39.7%	–	40%	–
Cc1ccc(CN2CCC[C@H](Nc3ccc4[nH]ncc4c3)C2)cc1O [Compound 1.151, (S)-5-((3-(1H-indazol-5-ylamino)piperidin-1-yl)methyl)-2-methylphenol]	33.1%	–	–	–
Cc1ccc(CN2CCC[C@H](Nc3ccc4[nH]ncc4c3)C2)cc1OCCO [Compound 1.152, (S)-2-(5-((3-(1H-indazol-5-ylamino)piperidin-1-yl)methyl)-2-methylphenoxy)ethanol]	34.4%	–	34%	–
C#Cc1cccc(CN2CCC[C@H](Nc3ccc4[nH]ncc4c3)C2)c1 [Compound 1.153, (S)-N-(1-(3-ethynylbenzyl)piperidin-3-yl)-1H-indazol-5-amine]	40.9%	–	41%	–
Oc1cccc(CN2CCC[C@H](Nc3ccc4[nH]ncc4c3)C2)c1 [Compound 1.163, (S)-3-((3-(1H-indazol-5-ylamino)piperidin-1-yl)methyl)phenol]	35.4%	–	35%	–
Cc1ccc(CN2CCC[C@@H](Nc3ccc4[nH]ncc4c3)C2)cc1O [Compound 1.173, (R)-5-((3-(1H-indazol-5-ylamino)piperidin-1-yl)methyl)-2-methylphenol]	32.8%	–	33%	–
NCc1cccc(CN2CCC[C@H](Nc3ccc4[nH]ncc4c3)C2)c1 [Compound 1.184, (S)-N-(1-(3-(aminomethyl)benzyl)piperidin-3-yl)-1H-indazol-5-amine]	88.6%	–	–	–
O=C(O)COc1cccc(CN2CCC[C@H](Nc3ccc4[nH]ncc4c3)C2)c1 [Compound 1.196, (S)-2-(3-((3-(1H-indazol-5-ylamino)piperidin-1-yl)methyl)phenoxy)acetic acid]	96.2%	–	–	–
CC(=O)NCc1cccc(CN2CCC[C@H](Nc3ccc4[nH]ncc4c3)C2)c1 [Compound 1.197]	41.7%	–	42%	–
CCOC(=O)COc1cccc(CN2CCC[C@H](Nc3ccc4[nH]ncc4c3)C2)c1 [Compound 1.200, (S)-ethyl 2-(3-((3-(1H-indazol-5-ylamino)piperidin-1-yl)methyl)phenoxy)acetate]	91.5%	–	92%	–
CS(=O)(=O)Nc1cc(CN2CCC[C@@H](Nc3ccc4[nH]ncc4c3)C2)ccc1Cl [Compound 1.212, (R)-N-(5-((3-(1H-indazol-5-ylamino)piperidin-1-yl)methyl)-2-chlorophenyl)methanesulfonamide]	40.1%	–	40%	–
CS(=O)(=O)Nc1cc(CN2CCC[C@H](Nc3ccc4[nH]ncc4c3)C2)ccc1Cl [Compound 1.213, (S)-N-(5-((3-(1H-indazol-5-ylamino)piperidin-1-yl)methyl)-2-chlorophenyl)methanesulfonamide]	29.3%	–	29%	–
CS(=O)(=O)Nc1cccc(CN2CCC[C@H](Nc3cccc4cnccc34)C2)c1 [Compound 2.037, (S)-N-(3-((3-(isoquinolin-5-ylamino)piperidin-1-yl)methyl)phenyl)methanesulfonamide]	–	21.3%	–	IC50 (Rattus norvegicus): 2.12 µM
CCS(=O)(=O)Nc1cccc(CN2CC[C@@H](Nc3cccc4cnccc34)C2)c1 [Compound 2.041, (R)-N-(3-((3-(isoquinolin-5-ylamino)pyrrolidin-1-yl)methyl)phenyl)ethanesulfonamide]	–	−5.4%	–	IC50 (Rattus norvegicus): 0.162 µM
Cc1ccc(CN2CCC[C@H](Nc3cccc4cnccc34)C2)cc1 [Compound 2.045, (S)-N-(1-(4-methylbenzyl)piperidin-3-yl)isoquinolin-5-amine]	–	13.6%	–	IC50 (Rattus norvegicus): 2.72 µM
Cc1cncc2cccc(S(=O)(=O)N3CCCNC[C@@H]3C)c12 [Compound H-1152, reference compound]	–	−6.5%	–	–
C[C@@H](N)c1ccc(C(=O)Nc2ccnc3[nH]ccc23)cc1 [Compound Y-39983, reference compound]	26.5%	−6.0%	–	IC50 [1]: 0.19 µM
O=S(=O)(c1cccc2cnccc12)N1CCCNCC1 [Fasudil, reference compound]	–	–	–	Percentage of carbachol-induced contraction at 10 μM compound, Avg % (listed as fasudil): 43.0%; IC50 Avg [1]: could not be obtained
